Source: patent US20230257761A1, “HERBICIDE RESISTANT PLANT” (INSTITUTE OF GENETICS AND DEVELOPMENTAL BIOLOGY, CHINESE …, priority 2019, published 2023)

Experiments:
Assay type in all cases: in vivo
[1] = test system: wheat (Triticum aestivum L.); test: Herbicide screening: imazapic added to wheat rooting medium
Method: The existing imazapic-resistant wheat plants were used as positive control, and wild-type wheat was used as negative control. Different concentrations of imazapic were added to the wheat rooting medium, and an appropriate screening concentration was found, that is, 1/15 of the concentration of imazapic used in the field.

[2] = test system: rice tissue culture seedlings; test: Spraying of rice tissue culture seedlings with HPPD herbicide; settings: about two weeks after spraying, ⅛ of the field concentration; for leaves and growth of overexpressing positive rice seedlings: rice overexpressing HPPD protein; for leaves of wild-type rice tissue culture seedlings: wild-type rice without resistance
Method: The rice tissue culture seedlings overexpressing HPPD protein were used as the positive control, and the wild-type rice plants of the same stage and variety were used as the negative control. Each group of 8 plants was sprayed with different concentration gradients of herbicide: mesotrione or Topramezone. […] The herbicide concentration, that is, ⅛ of the field concentration of mesotrione or Topramezone, is a suitable screening concentration. The rice plants obtained in Example 2 were treated at this screening concentration to obtain herbicide-resistant plants

[3] = test system: rice cultivar Zhonghua 11; test: Spraying of stems and leaves of regenerated T0 rice plants with Haloxyfop-P
Excerpt: According to the growth state of the regenerated plants, the T0 generation plants regenerated on the medium were placed in water for 5 to 30 days, and then the plant stems and leaves were directly sprayed with Haloxyfop-P, and the spray concentration range is between 0.1 and 2 times of the recommended concentration of commercial preparations. Four weeks after spraying, a total of 5 surviving mutants, ie, herbicide-resistant mutants, were obtained (FIG. 3).

Row | SMILES | leaves and growth of overexpressing positive rice seedlings [2] | leaves of wild-type rice tissue culture seedlings [2] | also measured
1 | Cc1cnc(C2=NC(=O)C(C)(C(C)C)N2)c(C(=O)O)c1 (centres unmarked) [imazapic] |  |  | rooting of positive control wheat ([1]; existing imazapic-resistant (overexpression-positive) wheat, rooting medium with 1/15 of the field concentration of imazapic): grow roots normally; rooting of wild-type wheat ([1]; wild-type wheat (negative control), rooting medium with 1/15 of the concentration of imazapic used in the field): significantly inhibited
2 | CS(=O)(=O)c1ccc(C(=O)C2C(=O)CCCC2=O)c([N+](=O)[O-])c1 [mesotrione] | normal and grew normally | turned white and then withered slowly | 
3 | C[C@@H](Oc1ccc(Oc2ncc(C(F)(F)F)cc2Cl)cc1)C(=O)O [Haloxyfop-P] |  |  | number of surviving (herbicide-resistant) mutants ([3]; base-edited T0 plants, four weeks after spraying, 0.1 to 2 times the recommended concentration of commercial preparations): 5; state of heart leaves of wild-type rice after spraying ([3]; wild-type Zhonghua No. 11 (WT), FIG. 3): dry and dead
4 | Cc1c(C(=O)c2cnn(C)c2O)ccc(S(C)(=O)=O)c1C1=NOCC1 [Topramezone] | normal and grew normally | turned white and then withered slowly | 
